{"source": "patent EP1247803A2", "about": "“Indolinone compounds suitable for modulation of protein kinases” (Sugen, Inc., priority 1996, dated 1998)", "data": [{"biological_target": "T1, FLK-1 receptor (Mus musculus, UniProt P35918)", "T1 construct": "expressed in transfected cells; host or cells: NIH3T3 C7#3", "T1 sequence (P35918 20-1345)": "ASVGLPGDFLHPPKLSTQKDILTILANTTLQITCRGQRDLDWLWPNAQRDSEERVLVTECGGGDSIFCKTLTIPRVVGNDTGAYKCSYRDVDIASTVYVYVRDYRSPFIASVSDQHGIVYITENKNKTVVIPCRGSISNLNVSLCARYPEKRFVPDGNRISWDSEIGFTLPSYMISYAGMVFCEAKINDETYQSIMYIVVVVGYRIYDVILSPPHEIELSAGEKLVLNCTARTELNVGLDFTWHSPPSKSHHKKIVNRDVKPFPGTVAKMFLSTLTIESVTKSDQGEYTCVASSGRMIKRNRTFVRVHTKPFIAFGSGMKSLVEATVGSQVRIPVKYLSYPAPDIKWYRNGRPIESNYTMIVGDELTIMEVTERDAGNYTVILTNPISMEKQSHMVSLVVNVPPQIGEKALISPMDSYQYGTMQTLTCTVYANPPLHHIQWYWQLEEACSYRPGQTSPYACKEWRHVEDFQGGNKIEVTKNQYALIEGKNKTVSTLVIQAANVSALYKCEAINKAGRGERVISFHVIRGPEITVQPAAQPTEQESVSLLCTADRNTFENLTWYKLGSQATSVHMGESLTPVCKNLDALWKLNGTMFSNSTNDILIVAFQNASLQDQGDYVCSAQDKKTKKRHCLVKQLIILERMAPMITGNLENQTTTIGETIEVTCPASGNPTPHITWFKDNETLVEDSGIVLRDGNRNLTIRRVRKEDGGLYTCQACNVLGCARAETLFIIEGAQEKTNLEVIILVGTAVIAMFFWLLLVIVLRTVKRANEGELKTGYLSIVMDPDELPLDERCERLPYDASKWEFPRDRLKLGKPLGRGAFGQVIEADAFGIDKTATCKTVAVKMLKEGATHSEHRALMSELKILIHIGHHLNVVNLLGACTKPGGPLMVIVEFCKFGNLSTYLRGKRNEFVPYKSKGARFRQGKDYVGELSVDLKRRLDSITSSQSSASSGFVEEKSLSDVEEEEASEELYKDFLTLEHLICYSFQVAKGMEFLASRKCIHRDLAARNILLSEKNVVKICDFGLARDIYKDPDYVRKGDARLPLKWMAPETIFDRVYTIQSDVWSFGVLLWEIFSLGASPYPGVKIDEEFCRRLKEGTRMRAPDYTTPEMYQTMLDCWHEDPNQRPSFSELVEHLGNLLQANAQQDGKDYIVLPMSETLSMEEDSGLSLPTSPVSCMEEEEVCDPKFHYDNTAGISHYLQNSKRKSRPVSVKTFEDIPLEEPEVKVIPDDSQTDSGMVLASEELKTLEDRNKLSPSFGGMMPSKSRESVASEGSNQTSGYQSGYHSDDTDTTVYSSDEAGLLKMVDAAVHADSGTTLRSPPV", "assay": "FLK-1 ELISA (kinase activity of the FLK-1 receptor in FLK-1/NIH3T3 cells, VEGF stimulated)", "type": "cell-based", "set-up": "concentration or dose not given beside the values", "method": "An enzyme linked immunosorbent assay (ELISA) was conducted to measure the catalytic activity of the FLK-1 receptor and more specifically, the inhibition or activation of indolinone compounds on the catalytic activity of the FLK-1 receptor. Specifically, the following assay was conducted to measure catalytic activity of the FLK-1 receptor in FLK-1/NIH3T3 cells.\nThe materials and protocol for the FLK-1 ELISA assay are as described in International Patent Publication No. WO 96/40116, published December 19, 1996 by Tang et al.\nSelected compounds were tested in the FLK-1 ELISA assay.\nAn ELISA assay was conducted to measure the kinase activity of the FLK-1 receptor and more specifically, the inhibition or activation of protein tyrosine kinase activity on the FLK-1 receptor. Specifically, the following assay was conducted to measure kinase activity of the FLK-1 receptor in FLK-1/NIH3T3 cells.\nMaterials. The following reagents and supplies were used: • a. […] Cappel goat anti-rabbit IgG (catalog no. 55641); • c. PBS (Gibco Catalog No. 450-1300EB); • d. TBSW Buffer (50 mM Tris (pH 7.2), 150 mM NaCl and 0.1% Tween-20); • e. Ethanolamine stock (10% ethanolamine (pH 7.0), stored at 4°C); • f. HNTG buffer (20mM HEPES buffer (pH 7.5), 150mM NaCl, 0.2% Triton X-100, and 10% glycerol); • g. EDTA (0.5 M (pH 7.0) as a 100X stock); • h. Sodium ortho vanadate (0.5 M as a 100X stock); • i. Sodium pyro phosphate (0.2M as a 100X stock); • j. NUNC 96 well V bottom polypropylene plates (Applied Scientific Catalog No. AS-72092); • k. NIH3T3 C7#3 Cells (FLK-1 expressing cells); • l. DMEM with 1X high glucose L Glutamine (catalog No. 11965-050); • m. FBS, Gibco (catalog no. 16000-028); • n. L-glutamine, Gibco (catalog no. 25030-016); • o. VEGF, PeproTech, Inc. (catalog no. 100-20)(kept as 1 µg/100 µl stock in Milli-Q dH2O and stored at -20°C; • p. Affinity purified anti-FLK-1 antiserum which can be obtained or purified as follows: • 1. Prepare a Tresyl-Activated Agarose/Flk-1-D column by incubating 10 ml of Tresyl-Activated Agarose with 20 mg of purified GST-Flk-1-D fusion protein in 100mM sodium bicarbonate (pH 9.6) buffer overnight at 4 °C. • 2. Wash the column once with PBS. • 3. Block the excess sites on the column with 2 M glycine for 2 hours at 4°C. • 4. Wash the column with PBS. • 5. Incubate the column with Rabbit anti-Flk-1D production bleed for 2 hours at 4 °C. • 6. Wash the column with PBS. • 7. Elute antiserum with 100 mM Citric Acid, pH3.0 and neutralize the eluate immediately with 2 M Tris, pH 9.0. • 8. Dialyize the eluate against PBS overnight at 4 °C with 3 changes of buffer (sample to buffer ratio is 1:100). • 9. Adjust the dialyized antiserum to 5% glycerol and store at -80 °C in small aliquotes. • q.\nProtocol. The following protocol was used for conducting the assay: • 1. Coat Corning 96-well elisa plates with 1.0µg per well Cappel Anti-rabbit IgG antibody in 0.1M Na2CO3 pH 9.6. Bring final volume to 150 µl per well. Coat plates overnight at 4°C. Plates can be kept up to two weeks when stored at 4°C. • 2. Grow cells in Growth media(DMEM, supplemental with 2.0mM L-Glutamine, 10% FBS) in suitable culture dishes until confluent at 37°C, 5% CO2. • 3. Harvest cells by trypsinization and seed in Corning 25850 polystyrene 96-well roundbottom cell plates, 25.000 cells/well in 200µl of growth media. • 4. Grow cells at least one day at 37°C, 5% CO2. • 5. Wash cells with D-PBS 1X. • 6. Add 200µl/well of starvation media (DMEM, 2.0mM 1-Glutamine, 0.1% FBS). Incubate overnight at 37°C, 5% CO2. • 7. Dilute Compounds/Extracts 1:20 in polypropylene 96 well plates using starvation media. Dilute dimethylsulfoxide 1:20 for use in control wells. • 8. Remove starvation media from 96 well cell culture plates and add 162 µl of fresh starvation media to each well. • 9. Add 18µl of 1:20 diluted Compound/Extract dilution (from step 7) to each well plus the 1:20 dimethylsulfoxide dilution to the control wells (+/- VEGF), for a final dilution of 1:200 after cell stimulation. […]", "units": {"Fik Kinase %Inhibition": "%"}, "values": [{"smiles": "CNS(=O)(=O)c1ccc2c(c1)C(=Cc1ccc(OCc3ccccc3)c(C(C)(C)C)c1)C(=O)N2", "note": "[10732/D06]", "Fik Kinase %Inhibition": 16.3}, {"smiles": "CNS(=O)(=O)c1ccc2c(c1)C(=C1C(=O)N(C)c3ccccc31)C(=O)N2", "note": "[10731/D10]", "Fik Kinase %Inhibition": 13.0}, {"smiles": "COc1ccc2[nH]cc(C=C3C(=O)Nc4ccc(S(=O)(=O)N5CCOCC5)cc43)c2c1", "note": "[10731/F09]", "Fik Kinase %Inhibition": 2.3}, {"smiles": "COc1c(C(C)C)cc(C=C2C(=O)Nc3ccc(Br)c(C)c32)cc1C(C)C", "note": "[10732/C03]", "Fik Kinase %Inhibition": 14.7}, {"smiles": "CCOC(=O)CCc1c(C(=O)OCC)[nH]c(C=C2C(=O)Nc3ccc(S(=O)(=O)NC)cc32)c1CC(=O)OCC", "note": "[10718/D05]", "Fik Kinase %Inhibition": 11.5}, {"smiles": "Cc1cc2occ(C=C3C(=O)Nc4ccc(CCCl)cc43)c(=O)c2cc1C", "note": "[10731/G03]", "Fik Kinase %Inhibition": 12.9}, {"smiles": "CNS(=O)(=O)c1ccc2c(c1)C(=Cc1cc(OC)cc(Br)c1O)C(=O)N2", "note": "[10718/D03]", "Fik Kinase %Inhibition": 1.1}, {"smiles": "O=C1Nc2ccc(S(=O)(=O)N3CCOCC3)cc2C1=Cc1c[nH]c(=O)[nH]c1=O", "note": "[10731/F08]", "Fik Kinase %Inhibition": 9.2}, {"smiles": "CNS(=O)(=O)c1ccc2c(c1)C(=Cc1coc3ccc(C)cc3c1=O)C(=O)N2", "note": "[10731/D06]", "Fik Kinase %Inhibition": 16.1}, {"smiles": "CC(C)c1ccc2occ(C=C3C(=O)Nc4ccc(CCCl)cc43)c(=O)c2c1", "note": "[10731/G05]", "Fik Kinase %Inhibition": 17.5}, {"smiles": "CC(C)(C)c1cc(C=C2C(=O)Nc3ccc(I)cc32)cc(Cl)c1OCc1ccccc1", "note": "[10732/B10]", "Fik Kinase %Inhibition": 12.1}, {"smiles": "CNS(=O)(=O)c1ccc2c(c1)C(=Cc1c[nH]c(=O)[nH]c1=O)C(=O)N2", "note": "[10731/D08]", "Fik Kinase %Inhibition": 25.8}, {"smiles": "COc1c(C(C)C)cc(C=C2C(=O)Nc3c(Br)cc(Br)cc32)cc1C(C)C", "note": "[10732/A03]", "Fik Kinase %Inhibition": -9.9}, {"smiles": "COc1c(Cl)cc(C=C2C(=O)Nc3ccc(Br)c(C)c32)cc1C(C)(C)C", "note": "[10732/C09]", "Fik Kinase %Inhibition": 8.0}, {"smiles": "CN1C(=O)C(=C2C(=O)Nc3ccc(CCCl)cc32)c2ccccc21", "note": "[10731/G10]", "Fik Kinase %Inhibition": -9.0}, {"smiles": "Cc1c(Br)ccc2c1C(=Cc1ccc(OCc3ccccc3)c(C(C)(C)C)c1)C(=O)N2", "note": "[10732/C06]", "Fik Kinase %Inhibition": 11.8}, {"smiles": "CCOC(=O)c1c(C)[nH]c(C=C2C(=O)Nc3ccc(S(=O)(=O)NC)cc32)c1C", "note": "[10718/D02]", "Fik Kinase %Inhibition": 13.3}, {"smiles": "COc1ccc(C=C2C(=O)Nc3c(Br)cc(Br)cc32)cc1C(C)(C)C", "note": "[10732/A05]", "Fik Kinase %Inhibition": -3.9}, {"smiles": "COc1ccc(C=C2C(=O)Nc3ccc(Br)c(C)c32)cc1C(C)(C)C", "note": "[10732/C05]", "Fik Kinase %Inhibition": 11.2}, {"smiles": "Cc1ccc2occ(C=C3C(=O)Nc4ccc(S(=O)(=O)N5CCOCC5)cc43)c(=O)c2c1", "note": "[10731/F06]", "Fik Kinase %Inhibition": 2.2}, {"smiles": "Cc1ccc2occ(C=C3C(=O)Nc4ccc(CCCl)cc43)c(=O)c2c1", "note": "[10731/G06]", "Fik Kinase %Inhibition": 10.8}, {"smiles": "CC(C)c1cc(C=C2C(=O)Nc3ccc(I)cc32)cc(C(C)C)c1Oc1ccccc1", "note": "[10732/B04]", "Fik Kinase %Inhibition": -1.3}, {"smiles": "COc1c(Br)cc(C=C2C(=O)Nc3ccc(I)cc32)cc1C(C)(C)C", "note": "[10732/B07]", "Fik Kinase %Inhibition": 1.6}, {"smiles": "Cc1c(Br)ccc2c1C(=Cc1cc(C(C)C)c(Oc3ccccc3)c(C(C)C)c1)C(=O)N2", "note": "[10732/C04]", "Fik Kinase %Inhibition": 12.8}, {"smiles": "CC(C)(C)c1cc(C=C2C(=O)Nc3c(Br)cc(Br)cc32)cc(Br)c1OCc1ccccc1", "note": "[10732/A08]", "Fik Kinase %Inhibition": -10.0}, {"smiles": "O=C1Nc2c(Br)cc(Br)cc2C1=CC(c1cccs1)C(F)(F)F", "note": "(centres unmarked) [10732/A02]", "Fik Kinase %Inhibition": -12.5}, {"smiles": "CNS(=O)(=O)c1ccc2c(c1)C(=Cc1cc(Br)c(OC)c(C(C)(C)C)c1)C(=O)N2", "note": "[10732/D07]", "Fik Kinase %Inhibition": 14.7}, {"smiles": "O=C1Nc2ccc(CCCl)cc2C1=Cc1c[nH]c(=O)[nH]c1=O", "note": "[10731/G08]", "Fik Kinase %Inhibition": 18.2}, {"smiles": "CNS(=O)(=O)c1ccc2c(c1)C(=Cc1cc(C(C)C)c(OC)c(C(C)C)c1)C(=O)N2", "note": "[10732/D03]", "Fik Kinase %Inhibition": 22.5}]}]}
